“Also recorded” adds a separate entry of the source. Read-outs that look alike come from different tables or passages of the source.
Experiments:
[1] = system: rats with cortical contusion injury (TBI); experiment: Cortical contusion injury (weight drop TBI), lesion histology; format: in vivo, rat
Protocol: (§1) Cortical Contusion Injury. Adult male and female Sprague-Dawley and Wistar rats (225-350 gm) received a moderately severe cortical impact injury under anesthesia with a controlled weight drop apparatus mounted on a stereotactic apparatus. Anesthesia was induced with ketamine/xylazine (60/6 mg/kg i.p.). A midline incision was performed to expose the skull. The dura was exposed with a 4.4-mm craniotomy centered at 1.4-mm posterior and 2.4-mm lateral to the bregma for placement of the 4-mm diameter foot-plate of the contusion apparatus. Contusion injury force of 600 g/cm was produced with a 20-g weight and dropping distance of 30-cm. The 20-g weight was released into a vertical guided tube that strikes the foot plate positioned at the end of the tube which is in contact with the dura. To avoid brain penetration, the foot-plate was prevented by a guide from moving greater than 2.5-mm into the dura.
(§2) Drug Administration. Rats in the TBI+CBD group received the gelfoam sponge infused with CBD (20.0 mg/ml) directly to the open contusion site overlying the dura within 2 min after the weight was removed from the apparatus. CBD was also administered systemically 10 min following surgery at 40 mg/kg followed by 20 mg/kg for all other injection days. TBI rats received gelfoam with coconut or olive oil directly onto the open contusion site overlying the dura following their respective surgical contusions. TBI rats also received vehicle, either coconut oil, olive oil, or PBS systemically at equal volumes that were administered to CBD treated animals according to weight (0.1-0.4 cc).
After direct delivery of the CBD internal gelatinized matrix, dental acrylic was used to close the wound. Animals became active 30-40 min following surgery.
FIG. 5 depicts schematic overview perspectives of an internal CBD absorbable medical carrier applied to the internal brain wound in the rat with systemic supplementation.

[2] = system: rats with cortical contusion injury (TBI); experiment: Cortical contusion injury, hippocampal cell counts after H&E staining; format: in vivo, rat
Protocol: as §1, §2
In the contralateral CAL injured cells were intermingled among healthy appearing round cell bodies. […] In contrast to the TBI+vehicle group, the ipsilateral hippocampus was predominantly intact in all CBD treated animals but with disproportional levels of injured cells throughout the subfields. There were varied numbers of pyknotic, acidophilic, irregular shaped CA1 and CA3a (not illustrated) neurons.
Since 9 of 13 animals from the TBI+vehicle group had spared ipsilateral hippocampal tissue, counting of injured vs. healthy appearing cells of the CA1 subregion was carried out in a subset of animals from the TBI+vehicle group and compared with the CBD treated group to estimate whether injury on one side is related to the amount of injury on the other side. Measurements of the CA1 area and total volumetric measurements of the ipsilateral hemisphere were used for correlating ipsilateral injury with ipsilateral and contralateral hippocampal cellular injury.

[3] = system: rats with cortical contusion injury (TBI); experiment: Beam balance test (vestibulomotor function) after TBI; format: in vivo, rat; details: compared to TBI untreated rats; day 14 through day 28
Protocol: as §1
Drug Administration. Rats in the TBI+CBD group received the gelfoam sponge infused with CBD (20.0 mg/ml) directly to the open contusion site overlying the dura within 2 min after the weight was removed from the apparatus. CBD was also administered systemically 10 min following surgery at 40 mg/kg followed by 20 mg/kg for all other injection days. […]
Vestibulomotor function was determined with the beam balance test in the TBI untreated and TBI+CBD treated rats. […]

[4] = system: rats with cortical contusion injury (TBI); experiment: Spontaneous alternating T-maze after TBI; format: in vivo, rat
Protocol: as §1, §2
The spontaneous alternating T-maze was utilized at 3 and 28 days following TBI or TBI+CBD in order to assess spatial sense, memory and cognitive ability. Naïve untreated rats spontaneously alternated between left and right arms. There was a tendency of asymmetry to the left arm, but the number of entries was not great enough to exclude the possibility that the difference was due to random sampling variability (L: 6.3±1.7 vs. R: 4.7±0.52, N=10, two-tailed t=2.1, df=18, p=0.05). At 3 days following TBI to the left hemisphere, arm entry was impaired.

[5] = system: rats with cortical contusion injury (TBI); experiment: Novel Object Recognition test after TBI; format: in vivo, rat
Protocol: as §1, §2
The Novel Object Recognition test was utilized to evaluate the short-term and working memory of the TBI+CBD group compared to control TBI levels at 27-29 days and naive untreated young rats. Following habituation, animals could explore an open field with two objects for 3 consecutive days by introducing two same objects on day 1 and adding a novel object on days 2 and 3 without visual cues.

[6] = system: rats with spinal cord contusion (SCI); experiment: Spinal cord contusion (SCI), lesion and locomotor recovery; format: in vivo, rat
Source text: FIG. 6 depicts schematic overview perspectives of an internal CBD absorbable medical carrier applied to the internal wound in the rat with systemic supplementation with a spinal cord contusion (SCI).

[7] = cited from earlier work
[8] = comparison of both hemispheres, p=0.037

C=C(C)[C@@H]1CCC(C)=C[C@H]1c1c(O)cc(CCCCC)cc1O [CBD, cannabidiol]
area affected, normalized to TBI+vehicle treated group ([1]; Bregma AP 1.2 to −6.8, local sponge plus systemic CBD, p=0.0008): 34.04±6.38% | ipsilateral cortical/hippocampal lesion volume ([1]; approximated from 12 levels, 4 weeks after TBI, gelfoam sponge with CBD 20.0 mg/ml at contusion site plus systemic CBD 40 then 20 mg/kg, TBI+vehicle 69.85±7.2): 21.4±3.5 mm^3 | lesion size after brain contusion (in words) ([1]; compared to contusion alone / TBI+vehicle): reduced ipsilateral lesion size; also recorded: decreased the size of the ipsilateral lesion | total anterior to posterior lesion measurement ([1]; local sponge plus systemic CBD, TBI control 6.586±0.2, p=0.008): 5.867±0.17 mm | lesion area at posterior levels (Bregma AP: −6.8 or further) ([1]; local sponge plus systemic CBD, comparison value 1.22±0.35, p=0.347): 0.92±0.17 mm^2 | hippocampal injury at the cellular level (H&E, in words) ([2]; CBD local and peripheral delivery system): partially attenuated | contralateral hippocampus hilus irregular stained/injured cells ([2]; TBI+vehicle 30.4 4.17, p=0.002): 7.63±1.86 | contralateral hippocampus CA1 irregular stained/injured cells ([2]; TBI+vehicle 53.3±10.9, p=0.045): 14.22±2.2 | number of injured CA1 neurons, contralateral side (comparison of both hemispheres) [2, 8]: 14.21±2.29 | number of injured CA1 neurons, ipsilateral side [2, 8]: 172.75±70 | percent of CA1 contralateral injured cell counts relative to TBI+vehicle ([2]; relative to TBI+vehicle): 26.7±4.37% | ratio of ipsilateral injured CA1 neurons to healthy appearing CA1 pyramidal neurons ([2]; versus TBI+vehicle): unchanged | beam balance performance / vestibulomotor function (in words) [3]: improved balance and locomotor function within a few days; also recorded: significant improvement | time to choose right or left ([4]; 3 or 28 days post-injury, not significantly different from TBI+vehicle): 13 to 33 s | asymmetry of arm entry to the left ([4]; 3 days following TBI to the left hemisphere): highly significant | percent alternating in T-maze ([4]; 28 days after TBI, TBI 17.5±11.8%): 52.5±8.53% | spontaneous alternation (in words) ([4]; after 28 days): significant increase in percent alternating | overall mobility ([5]; 27-29 days post-TBI): greater than TBI rats and similar to naïve untreated controls | speed of travel ([5]; 27-29 days post-TBI, p=0.032): greater speed than TBI rats | distance travelled ([5]; averaged from days 2+3 of testing, 27-29 days post-TBI, p=0.03): greater distance than TBI+vehicle treated rats | number of episodes of interacting with old and novel objects ([5]; compared to TBI rats, not significantly different from naïve rats): much greater | time spent with the novel object ([5]; compared to TBI, not significantly different from naïve rats): much greater | locomotor recovery after spinal cord contusion (in words) ([6]; aged female rats, weeks 5 and 6 with continued CBD treatment): significant locomotor improvement | spinal cord lesion area / tissue preservation (Luxol Fast Blue, in words) ([6]; internal CBD carrier plus 1 week of daily CBD injections and 3 weeks of intermittent CBD treatment): reduced volumetric lesion area | absorbed in the body ([7]; ingestion): 5-20% | absorbed in the body ([7]; vaping or smoking): 30-60%
